Reference: patent US9217170B2, “Fluorescent detector systems for the detection of chemical perturbations in sterile storage devices” (Blood Cell Storage, Inc., priority 2004, dated 2015)
Like-named read-outs stand apart in the source and are kept apart here. Each block holds one molecule with its values, some of them ahead of it.

What was measured:
[1] = pH 6
Method: (§1) Absorbance was measured at pH 6, 8, and 10: acid (pH 6) gave two bands of similar absorbance; pH 10 gave a single λmax (base). The emission spectra were determined by excitation at the absorbance λmax (base). The wavelength where emission spectra crossed is reported as λiso. The emission λmax was measured at pH 10. pKa was determined from fluorescence emission spectra.
(§2) Fluorescence versus pH of various SNAFL free acids were compared using an Ocean Optics USB2000 fiber optic spectrometer and a tungsten halogen light source (part number HL-2000 FHSA). The light source was equipped with a linear variable filter that allowed the wavelength and shape of the excitation beam to be adjusted. […] A cuvette holder (part number CUV-FL-DA) was directly attached to the light source and a fiber optic cable directed emitted light to the spectrometer. Excitation conditions are reported for each fluorescence spectrum (3000 msec irradiation at the indicated wavelength). Spectral data were collected on a personal computer using the Ocean Optics software and overlays of different spectra were captured. […]
(§3) The pH at which two molecular species (tautomers) are equally represented is defined as the pKa. […] The intensity of fluorescence at the emission maxima is divided by 2, and pH of the intersecting pH curve is calculated by interpolation between the nearest 2 curves.

[2] = pKa determination from fluorescence emission spectra of SNAFL analogs; conditions: phosphate buffer, pH 6
Method: as §1, §2, §3

[3] = published / literature value; cited from earlier work

pKa [1]: 7.6
Molecule: 5′(and 6′)-carboxy-3,10-dihydroxy-spiro[7H-benzo[c]xanthene-7,1′(3′H)-isobenzofuran]-3′-one [SNAFL-1]

pKa [2]: 6.6
Molecule: O=C(O)CCc1cc2c(-c3ccccc3C(=O)O)c3ccc4cc(O)c(Cl)cc4c3oc-2cc1=O [EBIO-3, 2-(2-chloro-3-hydroxy-9-carboxyethyl-10-oxo-10H-benzo[c]xanthen-7-yl)benzoic acid]

Molecule: O=S1(=O)OC2(c3ccccc31)c1ccc3cc(O)ccc3c1Oc1c2ccc2cc(O)ccc12 [VITABLUE]
pKa [3]: 7.56
